Assays:
SUM149PT [1] = assay: Induction of cell cycle arrest in human SUM149PT cells assessed as accumulation of cells at G0/G1 phase at 2 uM incubated for 48 hrs by propidium iodide/RNase A staining based flow cytometry (reference value: 69.2 %); format: functional
SUM149PT [2] = assay: Induction of apoptosis in human SUM149PT cells assessed as early apoptotic cells at 2 uM incubated for 48 hrs by Annexin V-FITC/PI staining based flow cytometry (reference value: 2.28 %); format: functional
SUM149PT [3] = assay: Induction of apoptosis in human SUM149PT cells assessed as late apoptotic cells at 2 uM incubated for 48 hrs by Annexin V-FITC/PI staining based flow cytometry (reference value: 1.13 %); format: functional
SUM149PT [4] = assay: Induction of DNA double strand breaks in human SUM149PT cells assessed as increase in gamma-H2AX level incubated for 48 hrs by Western blotting analysis; format: functional, cell-based
SUM149PT [5] = assay: Induction of apoptosis in human SUM149PT cells assessed as early apoptotic cells at 2 uM incubated for 24 hrs by Annexin V-FITC/PI staining based flow cytometry (reference value: 2.59 %); format: functional
SUM149PT [6] = assay: Induction of apoptosis in human SUM149PT cells assessed as early apoptotic cells at 0.1 uM incubated for 24 hrs by Annexin V-FITC/PI staining based flow cytometry (reference value: 2.59 %); format: functional
HCC1937 = assay: Antiproliferative activity against human HCC1937 cells assessed as inhibition of cell growth incubated for 48 hrs by MTT assay; format: functional, cell-based; conditions: HCC1937, 48 h
SUM149PT [7] = assay: Induction of cell cycle arrest in human SUM149PT cells assessed as accumulation of cells at S phase at 2 uM incubated for 48 hrs by propidium iodide/RNase A staining based flow cytometry (reference value: 18.7 %); format: functional
SUM149PT [8] = assay: Induction of cell cycle arrest in human SUM149PT cells assessed as accumulation of cells at S phase at 0.1 uM incubated for 48 hrs by propidium iodide/RNase A staining based flow cytometry (reference value: 18.7 %); format: functional
SUM149PT [9] = assay: Induction of cell cycle arrest in human SUM149PT cells assessed as accumulation of cells at G0/G1 phase at 0.1 uM incubated for 48 hrs by propidium iodide/RNase A staining based flow cytometry (reference value: 69.2 %); format: functional
SUM149PT [10] = assay: Induction of apoptosis in human SUM149PT cells assessed as late apoptotic cells at 0.5 uM incubated for 48 hrs by Annexin V-FITC/PI staining based flow cytometry (reference value: 1.13 %); format: functional
SUM149PT [11] = assay: Induction of apoptosis in human SUM149PT cells assessed as necrotic cells at 0.5 uM incubated for 48 hrs by Annexin V-FITC/PI staining based flow cytometry (reference value: 0.51 %); format: functional
SUM149PT [12] = assay: Induction of apoptosis in human SUM149PT cells assessed as late apoptotic cells at 2 uM incubated for 24 hrs by Annexin V-FITC/PI staining based flow cytometry (reference value: 2.45 %); format: functional
SUM149PT [13] = assay: Induction of DNA double strand breaks in human SUM149PT cells assessed as increase in gamma-H2AX level in nucleus incubated for 48 hrs by immunofluorescence analysis; format: functional, cell-based
SUM149PT [14] = assay: Induction of apoptosis in human SUM149PT cells assessed as early apoptotic cells at 0.5 uM incubated for 24 hrs by Annexin V-FITC/PI staining based flow cytometry (reference value: 2.59 %); format: functional
SUM149PT [15] = assay: Induction of apoptosis in human SUM149PT cells assessed as viable cells at 0.1 uM incubated for 24 hrs by Annexin V-FITC/PI staining based flow cytometry (reference value: 93.7 %); format: functional; conditions: read-out: Activity
SUM149PT [16] = assay: Induction of apoptosis in human SUM149PT cells assessed as early apoptotic cells at 0.1 uM incubated for 48 hrs by Annexin V-FITC/PI staining based flow cytometry (reference value: 2.28 %); format: functional
SUM149PT [17] = assay: Induction of apoptosis in human SUM149PT cells assessed as viable cells at 0.5 uM incubated for 48 hrs by Annexin V-FITC/PI staining based flow cytometry (reference value: 96.1 %); format: functional; conditions: read-out: Activity
SUM149PT [18] = assay: Induction of apoptosis in human SUM149PT cells assessed as necrotic cells at 0.1 uM incubated for 48 hrs by Annexin V-FITC/PI staining based flow cytometry (reference value: 0.51 %); format: functional
SUM149PT [19] = assay: Antiproliferative activity against human SUM149PT cells assessed as inhibition of cell growth at 5 uM incubated for 48 hrs by MTT assay relative to control; format: functional
SUM149PT [20] = assay: Induction of cell cycle arrest in human SUM149PT cells assessed as accumulation of cells at S phase at 2 uM incubated for 24 hrs by propidium iodide/RNase A staining based flow cytometry (reference value: 16.4 %); format: functional
SUM149PT [21] = assay: Induction of apoptosis in human SUM149PT cells assessed as necrotic cells at 0.5 uM incubated for 24 hrs by Annexin V-FITC/PI staining based flow cytometry (reference value: 1.27 %); format: functional
CAPAN-1 = assay: Antiproliferative activity against human CAPAN-1 cells assessed as inhibition of cell growth incubated for 48 hrs by MTT assay; format: functional, cell-based; conditions: CAPAN-1, 48 h
SUM149PT [22] = assay: Induction of cell cycle arrest in human SUM149PT cells assessed as accumulation of cells at G0/G1 phase at 2 uM incubated for 24 hrs by propidium iodide/RNase A staining based flow cytometry (reference value: 72.8 %); format: functional
SUM149PT [23] = assay: Induction of cell cycle arrest in human SUM149PT cells assessed as accumulation of cells at S phase at 0.1 uM incubated for 24 hrs by propidium iodide/RNase A staining based flow cytometry (reference value: 16.4 %); format: functional
SUM149PT [24] = assay: Induction of cell cycle arrest in human SUM149PT cells assessed as accumulation of cells at G0/G1 phase at 0.1 uM incubated for 24 hrs by propidium iodide/RNase A staining based flow cytometry (reference value: 72.8 %); format: functional
SUM149PT [25] = assay: Induction of cell cycle arrest in human SUM149PT cells assessed as accumulation of cells at G2/M phase at 0.1 uM incubated for 24 hrs by propidium iodide/RNase A staining based flow cytometry (reference value: 5.54 %); format: functional
SUM149PT [26] = assay: Induction of apoptosis in human SUM149PT cells assessed as late apoptotic cells at 0.1 uM incubated for 24 hrs by Annexin V-FITC/PI staining based flow cytometry (reference value: 2.45 %); format: functional
SUM149PT [27] = assay: Induction of cell cycle arrest in human SUM149PT cells assessed as accumulation of cells at G2/M phase at 2 uM incubated for 24 hrs by propidium iodide/RNase A staining based flow cytometry (reference value: 5.54 %); format: functional

Compound `COc1cccc(-c2cc3cc(F)cc(C(N)=O)c3oc2=O)c1` has an Activity (SUM149PT [1]) of 16.9%, an Activity (SUM149PT [2]) of 29.6% and an Activity (SUM149PT [3]) of 6.85%. For the same compound, the Activity (SUM149PT [4]) was “Dose-dependent-effect”, the Activity (SUM149PT [5]) was 9.8% and the Activity (SUM149PT [6]) was 3.96%. The IC50 (HCC1937) was 1.91 µM, the Activity (SUM149PT [7]) was 18.5% and the Activity (SUM149PT [8]) was 45.4%. The Activity (SUM149PT [9]) was 25.9%, the Activity (SUM149PT [10]) was 13.5% and the Activity (SUM149PT [11]) was 11.9%. For the same compound, the Activity (SUM149PT [12]) was 6.87%, the Activity (SUM149PT [13]) was “Dose-dependent-effect” and the Activity (SUM149PT [14]) was 5.61%. For the same compound, the viability at 0.1 µM (SUM149PT [15]) was 91.5%, the Activity (SUM149PT [16]) was 5.45% and the viability at 0.5 µM (SUM149PT [17]) was 61.3%. The Activity (SUM149PT [18]) was 1.22%, the inhibition at 5 µM (SUM149PT [19]) was over 70% and the Activity (SUM149PT [20]) was 22.3%. It also gave an Activity (SUM149PT [21]) of 2.31%, an IC50 (CAPAN-1) of 4.26 µM and an Activity (SUM149PT [22]) of 39.9%. For the same compound, the Activity (SUM149PT [23]) was 33.2%, the Activity (SUM149PT [24]) was 59.5% and the Activity (SUM149PT [25]) was 6.91%. It also gave an Activity (SUM149PT [26]) of 2.69% and an Activity (SUM149PT [27]) of 36.8%.

— ChEMBL document CHEMBL6074623, “Carbamoylation at C-8 position of natural 3-arylcoumarin scaffold for the discovery of novel PARP-1 inhibitors with potent anticancer activity” (Eur J Med Chem, 2024)
